Reference: patent US5578622A, “Isothiazole derivatives and their uses” (Asamura Patent Office, priority 1994, dated 1996)

What was measured:
[1] = test system: Candida albicans IFO 1270; assay: In vitro antimycotic activity on Candida albicans; type: cell-based; settings: IFO1270, 10 (ppm), SGB, 37° C., 48 hours, turbidity at 650 nm, read-out: Antimycotic activity (growth inhibitory rate), C.albicans
Method: 3-1 In vitro antimycotic activity on Candida albicans
Candida albicans IFO 1270 pre-cultured on a Sabouraud's glucose agar (SGA) plate medium at 37° C. […] was suspended in a sterilized physiological salt solution. The number of fungi in the resulting suspension was counted with a globulimeter, and adjusted so as to be 1×10^7 cell/ml with a sterilized physiological salt solution. This solution was used as an inoculum solution. Thereafter, 0.1 ml of this solution and 0.1 ml of a dimethyl sulfoxide (DMSO) solution of the test compound were added to 9.8 ml of Sabouraud's glucose broth (SGB), and shake-cultured at 37° C. for 48 hours. After culture, the medium turbidity was measured at 650 nm, and the growth-inhibitory rate of the fungus was calculated according to the following equation.
Growth inhibitory rate (%)=(1-W/Y)×100
Y: Medium turbidity of DMSO control group
W: Medium turbidity of test compound group
From this inhibitory rate, the antimycotic activity was shown by the symbols A to D. The test results of the test compounds are shown in Table 4.

[2] = test system: Trichophyton mentagrophytes IFO 5810; assay: In vitro antimicrobial activity on Trichophyton mentagrophytes; type: cell-based; design: key: A: Fungus is not observed at all with the naked eye.; B: Presence of fungus is slightly observed on shaking the test tube.; C: Fungus of about less than one-fourth that of the DMSO control group is observed with the naked eye.; Fungus of about less than half that of the DMSO control group is observed with the naked eye; settings: 10 (ppm); SGB, 27° C., 7 days
Method: 3-3 In vitro antimicrobial activity on Trichophyton mentagrophytes To Trichophyton mentagrophytes IFO 5810 precultured at 27° C. for 2 to 3 weeks on a Sabouraud's glucose agar (SGA) slant medium was added a sterilized physiological salt solution containing 0.1% (W/V) Tween 80. After conidia were made free from the solution, the solution was filtered through a sterilized two-sheet gauze to remove the mycelium mass. The number of the conidia in the resulting suspension was counted with a globulimeter and adjusted so as to be 1×10^6 conidia/ml with a sterilized physiological salt solution containing 0.1%(W/V) Tween 80. This solution was used as an inoculum solution. Thereafter, 0.1 ml of this solution and 0.1 ml of the dimethyl sulfoxide (DMSO) solution of the test compound were added to 9.8 ml of Sabouraud's glucose broth (SGB), and shake-cultured at 27° C. for 7 days.

[3] = test system: Pseudoperonospora cubensis; assay: Test for controlling effect on downy mildew of cucumber; type: in vivo; settings: 168 h, 200 ppm spray, one day before inoculation, cucumber 2-leaf stage, read-out: Controlling effect (control of disease), Downy mildew of cucumber
Summary of the method: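 200 ppm compound sprayed on potted 2-leaf cucumber; P. cubensis zoospores spray-inoculated one day later. Plants kept 1 day in humid room at 25° C, then 6 days in greenhouse. Control computed from per-leaf infection relative to untreated plot.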

Rhizoctonia solani = assay: Test for controlling effect on sheath blight of rice; type: in vivo; settings: 120 h, 200 ppm spray, 24 hours after inoculation, rice 4-leaf stage, five days after inoculation, read-out: Controlling effect (control of disease), Sheath blight of rice
Summary of the method: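 Rice seedlings at the 4-leaf stage were inoculated with mycelium, then sprayed 24 h later with compound at 200 ppm. After air-drying, plants were held 24 h at 28 °C and 98% humidity, then moved to a greenhouse. Infected area was scored 5 days post-inoculation; control was calculated relative to untreated plants.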

[4] = test system: Gibberella fujikuroi ("Bakanae" disease of rice); assay: Test for rice seed-disinfecting effect; type: in vivo; settings: Fusarium fujikuroi, 504 h, seed immersion 25° C. 24 hours, three weeks after treatment, read-out: Controlling effect (control of disease), "Bakanae" disease of rice
Summary of the method: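 Bakanae-infected unhulled rice seed soaked 24 hours at 25° C in 1000 ppm compound, then sown and germinated two days. Infected-seedling rate scored three weeks after treatment; control calculated against untreated plot and graded on a standard scale.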

Trichoderma viride = assay: Test for wood rotting-preventing effect (mycelium growth inhibition on malt extract agar); type: cell-based; settings: 28° C.±2° C., 2 to 10 days, read-out: Rotting preventing effect (mycelium growth-inhibitory rate), TRV
Summary of the method: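 Mycelial agar disks (4 mm) placed on malt extract agar containing 50 ppm test compound and cultured at 28 °C ± 2 °C. Colony diameter measured 2–10 days after inoculation; growth-inhibitory rate (%) reported as symbol grades.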

Rhizopus nigricans = assay: as above; type: cell-based; settings: Rhizopus stolonifer, 28° C.±2° C., 2 to 10 days, read-out: Rotting preventing effect (mycelium growth-inhibitory rate), RHN
Summary of the method: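 Mycelial agar disks (4 mm) placed on malt extract agar containing 50 ppm test compound and grown at 28 °C ± 2 °C. Colony diameter measured 2-10 days after inoculation; mycelium growth-inhibitory rate (%) reported as a symbol score.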

## N#Cc1c(OC(F)F)nsc1OCCC#CI [Compound 82]
[1]
  inhibition of growth at 10 µg/mL: 100%
[2]
  Antimycotic activity (degree of growth, naked eye), T.mentagrophytes: A
[3]
  pest or weed control at 200 ppm: 95 to 100%
Rhizoctonia solani
  pest or weed control at 200 ppm: 95 to 100%
[4]
  pest or weed control at 1000 ppm: 95 to 100%
Trichoderma viride
  inhibition at 50 ppm: 95 to 100%
Rhizopus nigricans
  inhibition at 50 ppm: 95 to 100%

## CCOc1nsc(SCOCC#CI)c1C#N [Compound 54]
[1]
  inhibition of growth at 10 µg/mL: 100%
[2]
  Antimycotic activity (degree of growth, naked eye), T.mentagrophytes: A
[3]
  pest or weed control at 200 ppm: 95 to 100%
Rhizoctonia solani
  pest or weed control at 200 ppm: 95 to 100%
[4]
  pest or weed control at 1000 ppm: 95 to 100%
Trichoderma viride
  inhibition at 50 ppm: 95 to 100%
Rhizopus nigricans
  inhibition at 50 ppm: 95 to 100%

## CSc1snc(OCCC#CI)c1C#N [Compound 70]
[1]
  inhibition of growth at 10 µg/mL: 100%
[2]
  Antimycotic activity (degree of growth, naked eye), T.mentagrophytes: A
[3]
  pest or weed control at 200 ppm: 80 to 94%
Rhizoctonia solani
  pest or weed control at 200 ppm: 95 to 100%
[4]
  pest or weed control at 1000 ppm: 80 to 94%
Trichoderma viride
  inhibition at 50 ppm: 95 to 100%
Rhizopus nigricans
  inhibition at 50 ppm: 80 to 94%

## N#Cc1c(OC(F)F)nsc1SCOCC#CI [Compound 60]
[1]
  inhibition of growth at 10 µg/mL: 100%
[2]
  Antimycotic activity (degree of growth, naked eye), T.mentagrophytes: A
[3]
  pest or weed control at 200 ppm: 95 to 100%
Rhizoctonia solani
  pest or weed control at 200 ppm: 95 to 100%
[4]
  pest or weed control at 1000 ppm: 95 to 100%
Trichoderma viride
  inhibition at 50 ppm: 95 to 100%
Rhizopus nigricans
  inhibition at 50 ppm: 95 to 100%

## CC(C)Oc1snc(OCC#CI)c1C#N [Compound 23]
[1]
  inhibition of growth at 10 µg/mL: 100%
[2]
  Antimycotic activity (degree of growth, naked eye), T.mentagrophytes: A
[3]
  pest or weed control at 200 ppm: 95 to 100%
Rhizoctonia solani
  pest or weed control at 200 ppm: 80 to 94%
[4]
  pest or weed control at 1000 ppm: 95 to 100%
Trichoderma viride
  inhibition at 50 ppm: 95 to 100%
Rhizopus nigricans
  inhibition at 50 ppm: 95 to 100%

## COc1snc(OCC#CI)c1C#N [Compound 21, 3-(3-iodo-2-propynyloxy)-4-cyano-5-methoxyisothiazole]
[1]
  inhibition of growth at 10 µg/mL: 100%
[2]
  Antimycotic activity (degree of growth, naked eye), T.mentagrophytes: A
[3]
  pest or weed control at 200 ppm: 95 to 100%
Rhizoctonia solani
  pest or weed control at 200 ppm: 95 to 100%
[4]
  pest or weed control at 1000 ppm: 95 to 100%
Trichoderma viride
  inhibition at 50 ppm: 95 to 100%
Rhizopus nigricans
  inhibition at 50 ppm: 95 to 100%

## CS(=O)(=O)c1snc(OCC#CI)c1C#N [Compound 41, 3-(3-iodo-2-propynyloxy)-4-cyano-5-methylsulfonylisothiazole]
[1]
  inhibition of growth at 10 µg/mL: 100%
[2]
  Antimycotic activity (degree of growth, naked eye), T.mentagrophytes: A
[3]
  pest or weed control at 200 ppm: 95 to 100%
Rhizoctonia solani
  pest or weed control at 200 ppm: 80 to 94%
[4]
  pest or weed control at 1000 ppm: 95 to 100%
Trichoderma viride
  inhibition at 50 ppm: 95 to 100%
Rhizopus nigricans
  inhibition at 50 ppm: 95 to 100%

## CSc1nsc(SCOCC#CI)c1C#N [Compound 136]
[1]
  inhibition of growth at 10 µg/mL: 100%
[2]
  Antimycotic activity (degree of growth, naked eye), T.mentagrophytes: A
[3]
  pest or weed control at 200 ppm: 95 to 100%
Rhizoctonia solani
  pest or weed control at 200 ppm: 80 to 94%
[4]
  pest or weed control at 1000 ppm: 80 to 94%
Trichoderma viride
  inhibition at 50 ppm: 95 to 100%
Rhizopus nigricans
  inhibition at 50 ppm: 95 to 100%

## N#Cc1c(OCC#CI)nsc1S(=O)(=O)C(F)F [Compound 43]
[1]
  inhibition of growth at 10 µg/mL: 100%
[2]
  Antimycotic activity (degree of growth, naked eye), T.mentagrophytes: A
[3]
  pest or weed control at 200 ppm: 95 to 100%
Rhizoctonia solani
  pest or weed control at 200 ppm: 95 to 100%
[4]
  pest or weed control at 1000 ppm: 95 to 100%
Trichoderma viride
  inhibition at 50 ppm: 95 to 100%
Rhizopus nigricans
  inhibition at 50 ppm: 95 to 100%

## CSc1snc(OCC#CI)c1C#N [Compound 1, 3-(3-iodo-2-propynyloxy)-4-cyano-5-methylthioisothiazole]
[1]
  inhibition of growth at 10 µg/mL: 100%
[2]
  Antimycotic activity (degree of growth, naked eye), T.mentagrophytes: A
[3]
  pest or weed control at 200 ppm: 95 to 100%
Rhizoctonia solani
  pest or weed control at 200 ppm: 60 to 79%
[4]
  pest or weed control at 1000 ppm: 95 to 100%
Trichoderma viride
  inhibition at 50 ppm: 95 to 100%
Rhizopus nigricans
  inhibition at 50 ppm: 95 to 100%

## N#Cc1c(OCC#CI)nsc1SC(F)F [Compound 12, 3-(3-iodo-2-propynyloxy)-4-cyano-5-difluoromethylthioisothiazole]
[1]
  inhibition of growth at 10 µg/mL: 100%
[2]
  Antimycotic activity (degree of growth, naked eye), T.mentagrophytes: A
[3]
  pest or weed control at 200 ppm: 95 to 100%
Rhizoctonia solani
  pest or weed control at 200 ppm: 80 to 94%
[4]
  pest or weed control at 1000 ppm: 95 to 100%
Trichoderma viride
  inhibition at 50 ppm: 95 to 100%
Rhizopus nigricans
  inhibition at 50 ppm: 95 to 100%

## CCOc1snc(OCOCC#CI)c1C#N [Compound 96]
[1]
  inhibition of growth at 10 µg/mL: 100%
[2]
  Antimycotic activity (degree of growth, naked eye), T.mentagrophytes: A
[3]
  pest or weed control at 200 ppm: 95 to 100%
Rhizoctonia solani
  pest or weed control at 200 ppm: 95 to 100%
[4]
  pest or weed control at 1000 ppm: 95 to 100%
Trichoderma viride
  inhibition at 50 ppm: 95 to 100%
Rhizopus nigricans
  inhibition at 50 ppm: 95 to 100%

## N#Cc1c(OCOCC#CI)nsc1SC(F)F [Compound 90]
[1]
  inhibition of growth at 10 µg/mL: 100%
[2]
  Antimycotic activity (degree of growth, naked eye), T.mentagrophytes: A
[3]
  pest or weed control at 200 ppm: 95 to 100%
Rhizoctonia solani
  pest or weed control at 200 ppm: 95 to 100%
[4]
  pest or weed control at 1000 ppm: 95 to 100%
Trichoderma viride
  inhibition at 50 ppm: 95 to 100%
Rhizopus nigricans
  inhibition at 50 ppm: 95 to 100%

## COc1nsc(OCC#CI)c1C#N [Compound 48]
[1]
  inhibition of growth at 10 µg/mL: 100%
[2]
  Antimycotic activity (degree of growth, naked eye), T.mentagrophytes: A
[3]
  pest or weed control at 200 ppm: 95 to 100%
Rhizoctonia solani
  pest or weed control at 200 ppm: 95 to 100%
[4]
  pest or weed control at 1000 ppm: 95 to 100%
Trichoderma viride
  inhibition at 50 ppm: 95 to 100%
Rhizopus nigricans
  inhibition at 50 ppm: 95 to 100%

## CN(C)c1snc(OCC#CI)c1C#N [Compound 30, 3-(3-iodo-2-propynyloxy)-4-cyano-5-dimethylaminoisothiazole]
[1]
  inhibition of growth at 10 µg/mL: 100%
[2]
  Antimycotic activity (degree of growth, naked eye), T.mentagrophytes: A
[3]
  pest or weed control at 200 ppm: 95 to 100%
Rhizoctonia solani
  pest or weed control at 200 ppm: 95 to 100%
[4]
  pest or weed control at 1000 ppm: 95 to 100%
Trichoderma viride
  inhibition at 50 ppm: 95 to 100%
Rhizopus nigricans
  inhibition at 50 ppm: 95 to 100%

## CSc1snc(OC(C)OCC#CI)c1C#N (stereo not shown) [Compound 119]
[1]
  inhibition of growth at 10 µg/mL: 100%
[2]
  Antimycotic activity (degree of growth, naked eye), T.mentagrophytes: A
[3]
  pest or weed control at 200 ppm: 95 to 100%
Rhizoctonia solani
  pest or weed control at 200 ppm: 80 to 94%
[4]
  pest or weed control at 1000 ppm: 95 to 100%
Trichoderma viride
  inhibition at 50 ppm: 95 to 100%
Rhizopus nigricans
  inhibition at 50 ppm: 80 to 94%
